“Also recorded” adds a separate entry of the source.

In one data set the test system is P. aeruginosa biofilm. Kind of data set: Antibiofilm activity (crystal violet). Type of data set: cell-based, Pseudomonas aeruginosa. The note with it: 24 h incubation, HdKTLR 262, HdKNL 262, HdPPP 130, HdVLPN 204, HdLPN 227 µg/mL, OD 595 nm. The method, then:
(§1) The antibiofilm activity was determined according to the following method, with some modifications. Taking the microplate from 24 h inhibition growth curves, the contents of the plate were discarded, and each well was carefully washed three times with distilled water to remove non-adherent cells. The adhered cells were fixed with 150 µL of methanol for 10 min. Then, the methanol was discarded, the plates were left to dry, and then, the fixed biofilm was stained with […] of crystal violet (CV) for 10 min. Excess stain was rinsed out by placing the plate under slow-running tap water. Once the plates were air-dried, the dye attached to the adherent cells was resolubilized by adding 150 µL of 33% (v/v) glacial acetic acid and agitated for 15 min. The optical density of the solution obtained was measured at 595 nm using a multidetection plate reader (Synergy H1, Winooski, VT, USA). All tests were carried out in duplicate, with a positive control using an inoculated culture in MH broth and a negative control using MH broth only. The results are presented as the percentage of biofilm formation, calculated according to the following formula, where the OD of the sample is the measured OD of the inoculated medium mixed with the peptides, and the OD of the positive control is the OD measured for the positive control.% Biofilm formation = (ODsample/ODpositive control) × 100(1)

Data set [1] is described as follows: High-performance size exclusion chromatography (HPSEC): molecular size and aggregation. The data set is classed as physicochemical. The note with it: for Aggregation behaviour in HPSEC: Agilent AdvanceBio SEC 130 Å, isocratic, buffers 344 mM or 700 mM at pH 3.0, 5.0, 7.0, PDA detection. The method, then: The HPSEC column was eluted with 344 mM of a phosphate buffer at pH 7.0, replicating the conditions used to analyze the mucus peptide fraction in our previous article. During the analysis, we observed the formation of peptide aggregates, specifically oligomers, including dimers, trimers, and tetramers. Various buffer conditions were tested to determine if a particular pH and ionic strength would enable the peptides to expose their theoretical molecular weights, as specified in the GenScript technical datasheet. Since seawater typically has an ionic strength of approximately 700 mM [10], buffers with this ionic strength were tested at pH 3.0, 5.0, and 7.0, as well as at 344 mM of ionic strength.
The peptides’ molecular size validation was determined using high-performance size exclusion chromatography (HPSEC). An Agilent AdvanceBio SEC column (Agilent Technologies, London, UK), 2.7 µm in particle size, 130 Å in pore size, and 7.8 in inner diameter × 300 mm in length, was used. The column was eluted isocratically using various buffers with different pH and ionic strengths, namely, 344 mM at pH 7 (0.15 M of a phosphate buffer with NaH2PO4), 700 mM at pH 7 (0.15 M of a phosphate buffer with NaH2PO4 and NaCl), 344 mM at pH 5 (0. 15 M of an acetate buffer with acetic acid and NaCl), 700 mM at pH 5 (0.15 M of an acetate buffer with acetic acid and NaCl), 344 mM at pH 3 (0.05 M of a formate buffer with fomic acid and NaCl), and 700 mM at pH 3 (0.05 M of a formate buffer with formic acid and NaCl) at a flow rate of 1 mL/min. The sample injection volume was 10 µL. The instrument used was Waters 2690 with a photodiode array detector (PDA 190–600 nm). The software Empower 3 was used for data collection. To determine the molecular weights of the resulting chromatogram peaks, a calibration curve was made with the following protein standards: Ovalbumin (44,300 Da), Myoglobin (17,600 Da), Cytochrome C (12,327 Da), Aprotinin (6511 Da), Neurotensin (1672 Da), Angiotensin-II (1040 Da), Tyr-Phe dipeptide (328.4 Da), and L-tryptophan (204 Da).
A general note: In gel filtration, larger molecules generally elute earlier.

Data set [2] is described as follows: ABTS radical scavenging assay. The note with it: for Effect of pH and ionic strength on ABTS antioxidant activity: ABTS radical solution in HPSEC buffers, 344 and 700 mM, pH 3.0, 5.0, 7.0; for ABTS radical scavenging value: SD. The procedure: ABTS radical activity is based on an antioxidant’s capacity to scavenge the ABTS’s oxidized state. For this, ABTS radical scavenging activity was performed in a 96-well microplate, following the method described by. The absorbance was measured with a multidetection plate reader (Synergy H1, Winooski, VT, USA). For each sample, the standard and control analyses were duplicated. All measurements were performed in duplicate. The results are expressed in µmol of Trolox equivalents/µmol of peptide. To test the antioxidant activity under different pH and ionic strength conditions, the ABTS radical solution was prepared using the same buffers employed in the HPSEC analysis.

In the next data set the test system is S. aureus biofilm. Kind of data set: Antibiofilm activity (crystal violet). Type of data set: cell-based, Staphylococcus aureus. The note with it: 24 h incubation, HdKTLR 262, HdKNL 262, HdPPP 130, HdVLPN 204, HdLPN 227 µg/mL, OD 595 nm. The method, then:
as §1

Where [3] appears, read: pH 3 and 344 mM ionic strength, means (n ≥ 3) ± SD.
Setting [4] is: pH 7.0 and 700 mM ionic strength, means (n ≥ 3) ± SD.

Regarding EDNSELGQETPTLR [HdKTLR], the “Biofilm formation versus control” value with P. aeruginosa biofilm was “substantially reduced biofilm production”; in the data set on S. aureus biofilm, “no significant differences”. Also, the “Aggregation behaviour in HPSEC” value in data set [1] is “formation of aggregates into oligomers; also recorded: pronounced aggregation”. In addition, in data set [1] (buffers with ionic strengths of 344 mM and 700 mM at pH 7.0 and pH 5.0, theoretical molecular weight 1588.4 Da), the “Molecular weight observed by HPSEC (aggregate)” value is reported as “approximately 7836 Da”. In data set [2], the “Effect of pH and ionic strength on ABTS antioxidant activity” value (shortened to “Effect of pH and ionic strength”) is “no observable antioxidant activity”.
As to VYPFPGPLPN [HdVLPN], the “Biofilm formation versus control” value was “substantially reduced biofilm production” in the data set with P. aeruginosa biofilm and “no significant differences” in the data set on S. aureus biofilm. Further, the “Aggregation behaviour in HPSEC” value in data set [1] is “degree of polymerization was less prominent than in the other peptides; also recorded: aggregation was still observed”. For the same sequence, the “Effect of pH and ionic strength” value in data set [2] was “significant decrease in antioxidant activity”. The “ABTS radical scavenging value” is 0.163 ± 0.002 µmol TE/µmol of peptide in data set [2] (setting [3]) and 0.827 ± 0.021 µmol TE/µmol of peptide in data set [2] (setting [4]).
Turning to PFPGPLPN [HdLPN], the “Biofilm formation versus control” value is “substantially reduced biofilm production” with P. aeruginosa biofilm and “no significant differences” in the data set with S. aureus biofilm. Besides, in data set [1], the “Aggregation behaviour in HPSEC” value is listed as “forming only dimers; also recorded: aggregation was still observed”. Further, the “Effect of pH and ionic strength” value in data set [2] was “significant decrease in antioxidant activity”. Also, the “ABTS radical scavenging value” in data set [2] (setting [3]) is listed as 0.012 ± 0.004 µmol TE/µmol of peptide; in data set [2] (setting [4]) it was 0.283 ± 0.177 µmol TE/µmol of peptide.
Regarding DPPNPKNL [HdKNL], the results for the “Biofilm formation versus control” value with P. aeruginosa biofilm and in the data set with S. aureus biofilm were “substantially reduced biofilm production” and “no significant differences”, respectively. The “Aggregation behaviour in HPSEC” value in data set [1] is “aggregate formation increased at higher pH conditions; also recorded: aggregation was still observed”. Besides, the “Effect of pH and ionic strength” value in data set [2] is recorded as “remained unaffected by a decrease in pH”. For the same sequence, in data set [2] (peptide in H2O (HdPPP in DMSO), means (n ≥ 3) ± SD, nd: not detected), the ABTS entry is reported as “no antioxidant activity was observed”.

The record behind these values is publication PMC11857211, “Bioprospecting Bioactive Peptides in Halobatrachus didactylus Body Mucus: From In Silico Insights to Essential In Vitro Validation” (Marine Drugs, 2025).
